Literature values in patent US20260345593A1, “ORAL FORMULATION OF N-PYRIDINYL ACETAMIDE DERIVATIVE FOR TREATING INTERSTITIAL LUNG DISEASE” (AstraZeneca AB, priority 2022, published 2026).

What was measured:
[1] = 20 mg BID, preclinical and clinical studies; cited from earlier work
pH elevation = conditions: 20 mg BID oral pre-treatment; cited from earlier work
[2] = tested on: Axin2 expression levels in skin samples from subjects with advanced cancers; conditions: 10 mg once daily, cited from earlier work
patients with IPF = conditions: cited from earlier work; for rate of decline in lung function: patients with IPF (King 2014 and Richeldi 2014); for GI side effects / tolerability in IPF patients: patients with IPF
[3] = tested on: patients with ILD-PF other than IPF; conditions: ILD-PF other than IPF (Wells 2020); cited from earlier work
[4] = tested on: ILD patients with SSc-ILD; conditions: SSc-ILD (Khanna 2020); cited from earlier work

Compound	rate of decline in lung function (patients with IPF)	GI side effects (patients with IPF)	tolerability in IPF patients (patients with IPF)	also measured
COCCCOc1ccnc(C[S+]([O-])c2nc3ccccc3[nH]2)c1C (racemic) [rabeprazole, (RS)-2-([4-(3-methoxypropoxy)-3-methylpyridin-2-yl]methylsulfinyl)-1H-benzo[d]imidazole]				safety concerns [1]: not raised any notable safety concerns; time to PD steady state of pH elevation (pH elevation): 3 days
Cc1cc(-c2ncc(CC(=O)Nc3ccc(-c4cnccn4)cn3)cc2C)ccn1 [Wnt974]				reduction in Axin2 expression levels in skin samples ([2]; subjects with advanced cancers (Rodon 2021)): approximately 90%; average Ctrough at steady state ([2]; subjects with advanced cancers): 3.7 ×IC50
COC(=O)c1ccc2c(c1)NC(=O)/C2=C(\Nc1ccc(N(C)C(=O)CN2CCN(C)CC2)cc1)c1ccccc1 [nintedanib, methyl (3Z)-3-{[(4-{methyl[(4-methylpiperazin-1-yl)acetyl]amino}phenyl)amino](phenyl)methylidene}-2-oxo-2,3-dihydro-1H-indole-6-carboxylate]	slow the rate of decline in lung function	troublesome GI side effects	many patients with IPF are not able to tolerate these medications	rate of decline in lung function [3]: slow the rate of decline in lung function in these patients
Cc1ccc(=O)n(-c2ccccc2)c1 [pirfenidone]	slow the rate of decline in lung function	troublesome GI side effects	many patients with IPF are not able to tolerate these medications	
Tocilizumab: a monoclonal antibody directed against the IL-6 receptor				progression of lung disease [4]: slow progression of lung disease
